Values after ≈ are worked out from the molar mass of the structure shown.
Test system: aqueous solubility in PBS
Test: qHTS Assay for Inhibitors of Bacillus subtilis Sfp phosphopantetheinyl transferase (PPTase): Aqueous Solubility in PBS
Description: PPTases are responsible for the activation of a variety of pathogen-associated virulence factors. Among these compounds are toxins such as mycolactone from Mycobacterium ulcerans, siderophores such as vibriobactin from Vibrio cholerae or mycobactin from Mycobacterium tuberculosis, as well as the mycolic acids which form the waxy cell wall of Mycobacteria. The biosyntheses of these natural products are considered attractive targets for drug design. After a large qHTS and several follow-up assays, a small molecule was identified and this in vitro ADME assay serves to better characterize its properties.
This profiling assay looks at the […] of a small molecule in PBS (pH 7.4). This is an important parameter as it has significant impact on in vivo results, such as uptake, distribution, transport, and eventually bioavailability. This outcome is also of utmost importance for decisions concerning assay data and SAR strategy.
NIH Chemical Genomics Center [NCGC]
NIH Molecular Libraries Probe Centers Network [MLPCN]
Assay Submitter (PI): Michale Burkart, University of California, San Diego
1. 8ul of reference and test compound stock solution were added to 392ul 100mM phosphate buffer (pH 7.4)
2. Sample tubes were shaken for 1 hr (1000 rpm) at room temperature
3. […]
5. Concentration of the supernatant was determined by LC-UV or LC-MS/MS

solubility: 20 µM (≈ 8.64 µg/mL)
Compound: COc1ccnc(NC(=S)N2CCN(c3ncc(C(F)(F)F)cc3Cl)CC2)c1

Reference: PubChem BioAssay AID602480 (National Center for Advancing Translational Sciences (NCATS), 2012)
